Source: patent US10647700B2, “EZH2 inhibitor and use thereof” (TARAPEUTICS SCIENCE INC., priority 2017, dated 2020)

Assays:
EZH2 = EZH2 (Homo sapiens (Human), UniProt Q15910); experiment: E-cadherin promoter luciferase reporter gene primary screening in 293T cells; type: cell-based; settings: 293T cells treated for 24 hours, Dual-Glo luciferase
Excerpt: EZH2 suppresses the expression of downstream E-cadherin, and upon EZH2 suppression, expression of E-cadherin will increase. Based on such principle, a reporter gene expression vector was constructed using luciferase.
The amplified fragments after PCR and the PGL4.1 vector (purchased from TAKARA, Japan) were respectively subjected to enzyme digestion with SacI and BglII (purchased from TAKARA, Japan), and then purified with PCR cleanup kit (Axygen PCR cleanup kit). Subsequently, the purified and enzyme-digested PCR products was ligated to the purified and enzyme-digested PGL4.1 vector using ligase solution I (DNA Ligation Kit Ver.2.1, purchased from TAKARA, Japan), and subjected to transformation. Single clones were then screened out and subjected to sequencing, and the obtained positive plasmid containing promoter fragments of Ecadherin was named E-cadherin RE-PGL4.1.
Meanwhile, a Renilla fluorescent vector was constructed using PCDNA4.1 (purchased from Thermofisher, USA) as the template to amplify the fragment of CMV promoter. After enzymatic digestion of the amplified CMV sequences and pGL4.70 vector (purchased from Promega, USA) with KpnI and XhoI (purchased from Promega, USA), purification was conducted with PCR cleanup kit (Axygen PCR cleanup kit). Then the enzyme-digested PCR product was ligated to the enzyme-digested PGL4.70 vector using ligase solution I (DNA Ligation Kit Ver.2.1, purchased from TAKARA, Japan) and the resultant was subjected to transformation. Subsequently single clones were screened and subjected to sequencing, and the obtained plasmid that contained CMV sequence was named as Plasmid Renilla luciferase-pGL4.70. Said plasmid utilized CMV promoter to achieve high expression of Renilla luciferase, which served as the control fluorescence for the primary screening system.
The cells were firstly added with 20 μL Dual-Glo® Luciferase Assay Reagent, then incubated under room temperature for 10 minutes, and read on microplate reader Spectramax i3 (Molecular Devices, USA) to obtain the data of primary screening, which is shown in Table 1.

[1] = test system: H3K27m3 methylation in Pfeiffer cells; experiment: Western Blot of H3K27m3 methylation in Pfeiffer cells; type: cell-based; settings: for IC50: Homo sapiens, 72 hours treatment, H3K27m3 methylation by Western Blot
Description: Meanwhile, the inventors further conducted Western Blot with Pfeiffer cells (purchased from ATCC, USA) for verification. […] Effect of compounds on H3K27m3 methylation in cells was assessed.

[2] = molecular target: PRC2 protein complex comprising EZH2(Y641F) (Homo sapiens (Human), UniProt Q15910, Y641F); experiment: EZH2(Y641F) TR-FRET enzymatic activity assay; settings: for activity compared with control compounds in the assay using a TR-FRET kit: versus GSK126 and EPZ6438
PRC2 protein complex comprising EZH2(Y641F), sequence (Q15910 whole entry Y641F): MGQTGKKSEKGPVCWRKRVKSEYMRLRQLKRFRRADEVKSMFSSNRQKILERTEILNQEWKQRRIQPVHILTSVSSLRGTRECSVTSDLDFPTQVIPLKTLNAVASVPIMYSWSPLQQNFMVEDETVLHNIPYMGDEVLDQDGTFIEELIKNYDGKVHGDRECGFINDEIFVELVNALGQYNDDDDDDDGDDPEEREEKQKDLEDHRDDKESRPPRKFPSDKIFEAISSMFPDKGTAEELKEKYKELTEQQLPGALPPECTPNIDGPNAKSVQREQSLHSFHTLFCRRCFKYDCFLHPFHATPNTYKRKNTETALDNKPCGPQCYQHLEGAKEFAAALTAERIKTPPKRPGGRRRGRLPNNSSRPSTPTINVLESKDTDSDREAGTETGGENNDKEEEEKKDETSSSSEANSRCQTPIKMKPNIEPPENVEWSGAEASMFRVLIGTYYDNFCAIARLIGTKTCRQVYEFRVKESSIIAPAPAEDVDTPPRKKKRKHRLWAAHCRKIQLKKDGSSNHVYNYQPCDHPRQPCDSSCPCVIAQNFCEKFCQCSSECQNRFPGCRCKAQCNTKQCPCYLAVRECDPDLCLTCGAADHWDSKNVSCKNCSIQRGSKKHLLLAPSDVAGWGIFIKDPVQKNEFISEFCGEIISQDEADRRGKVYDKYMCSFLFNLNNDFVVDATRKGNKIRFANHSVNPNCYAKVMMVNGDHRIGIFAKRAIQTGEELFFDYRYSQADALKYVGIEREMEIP
PRC2 protein complex comprising EZH2(Y641F), sequence (O75530 whole entry partner): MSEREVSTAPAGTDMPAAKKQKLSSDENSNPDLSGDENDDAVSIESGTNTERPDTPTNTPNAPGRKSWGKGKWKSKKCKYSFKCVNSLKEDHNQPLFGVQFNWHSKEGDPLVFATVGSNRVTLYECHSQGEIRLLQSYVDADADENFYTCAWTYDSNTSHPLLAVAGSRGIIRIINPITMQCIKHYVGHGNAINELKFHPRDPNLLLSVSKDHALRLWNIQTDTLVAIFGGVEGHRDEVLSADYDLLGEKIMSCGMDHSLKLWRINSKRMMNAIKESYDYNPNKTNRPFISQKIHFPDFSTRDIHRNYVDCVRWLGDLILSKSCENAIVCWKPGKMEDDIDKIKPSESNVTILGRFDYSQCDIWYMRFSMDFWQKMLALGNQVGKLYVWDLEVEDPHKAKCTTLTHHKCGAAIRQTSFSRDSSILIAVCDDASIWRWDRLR
PRC2 protein complex comprising EZH2(Y641F), sequence (Q15022 whole entry partner): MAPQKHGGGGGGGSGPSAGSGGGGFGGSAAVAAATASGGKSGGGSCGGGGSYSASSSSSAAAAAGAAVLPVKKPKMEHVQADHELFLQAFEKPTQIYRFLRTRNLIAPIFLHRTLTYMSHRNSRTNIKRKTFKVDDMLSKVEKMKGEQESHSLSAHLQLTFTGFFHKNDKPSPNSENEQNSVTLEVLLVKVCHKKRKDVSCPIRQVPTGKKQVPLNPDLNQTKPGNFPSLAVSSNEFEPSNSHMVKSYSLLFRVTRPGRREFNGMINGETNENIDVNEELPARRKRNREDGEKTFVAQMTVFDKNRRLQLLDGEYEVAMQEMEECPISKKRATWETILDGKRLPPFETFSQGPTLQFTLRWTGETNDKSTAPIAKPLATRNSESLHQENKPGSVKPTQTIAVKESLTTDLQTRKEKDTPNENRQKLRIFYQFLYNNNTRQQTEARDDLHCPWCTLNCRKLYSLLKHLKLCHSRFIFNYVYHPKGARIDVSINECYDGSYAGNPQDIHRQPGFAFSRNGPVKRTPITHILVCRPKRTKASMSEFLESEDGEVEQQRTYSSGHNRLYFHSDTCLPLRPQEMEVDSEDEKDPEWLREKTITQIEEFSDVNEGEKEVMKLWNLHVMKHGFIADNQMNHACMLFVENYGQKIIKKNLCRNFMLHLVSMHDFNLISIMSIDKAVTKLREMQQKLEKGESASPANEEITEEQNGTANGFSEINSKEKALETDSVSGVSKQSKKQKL
PRC2 protein complex comprising EZH2(Y641F), sequence (Q09028 whole entry partner): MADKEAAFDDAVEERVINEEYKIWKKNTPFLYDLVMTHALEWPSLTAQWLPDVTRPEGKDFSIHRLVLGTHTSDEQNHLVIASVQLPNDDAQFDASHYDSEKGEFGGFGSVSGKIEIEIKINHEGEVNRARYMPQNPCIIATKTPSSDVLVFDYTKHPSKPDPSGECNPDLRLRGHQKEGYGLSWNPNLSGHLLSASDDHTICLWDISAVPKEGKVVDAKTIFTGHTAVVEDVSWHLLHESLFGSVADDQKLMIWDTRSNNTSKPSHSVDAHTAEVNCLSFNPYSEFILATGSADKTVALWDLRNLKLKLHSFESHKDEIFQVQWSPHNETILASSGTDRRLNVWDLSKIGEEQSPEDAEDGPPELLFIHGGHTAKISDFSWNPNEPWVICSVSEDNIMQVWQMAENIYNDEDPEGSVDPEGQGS
PRC2 protein complex comprising EZH2(Y641F), sequence (Q6ZN18 whole entry partner): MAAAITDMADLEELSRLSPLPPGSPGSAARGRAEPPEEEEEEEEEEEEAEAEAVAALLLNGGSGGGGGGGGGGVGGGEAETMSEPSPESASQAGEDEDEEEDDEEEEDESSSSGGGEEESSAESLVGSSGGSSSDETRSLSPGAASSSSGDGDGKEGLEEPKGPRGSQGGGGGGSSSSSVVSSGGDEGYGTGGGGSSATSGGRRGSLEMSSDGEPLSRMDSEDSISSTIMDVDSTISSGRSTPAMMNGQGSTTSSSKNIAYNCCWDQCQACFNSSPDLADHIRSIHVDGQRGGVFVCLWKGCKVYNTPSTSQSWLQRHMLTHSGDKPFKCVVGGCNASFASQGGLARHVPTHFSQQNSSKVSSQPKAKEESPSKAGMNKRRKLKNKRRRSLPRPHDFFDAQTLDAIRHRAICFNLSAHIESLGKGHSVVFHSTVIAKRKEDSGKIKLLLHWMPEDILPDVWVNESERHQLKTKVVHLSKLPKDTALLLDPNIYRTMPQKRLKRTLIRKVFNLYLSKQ
Description: Subsequently 5 μL of the assay antibody, H3K27me3-Eu(K)Ab (purchased from cisbio bioassays, USA, #61 KC3KAE) and 5 μL Streptavidin-XL665 (purchased from cisbio bioassays, USA, #610SAXLA), were added and incubated for 1 hour at room temperature.

EZH2, sequence (Q15910 whole entry): as the sequence (Q15910 whole entry Y641F) above, with F641Y counted along it
EZH2, sequence (O75530 whole entry partner): as the sequence (O75530 whole entry partner) above
EZH2, sequence (Q15022 whole entry partner): as the sequence (Q15022 whole entry partner) above
EZH2, sequence (Q09028 whole entry partner): as the sequence (Q09028 whole entry partner) above

Row | 1 μM relative fluorescence intensity (EZH2; compound 1 μM) | 10 μM relative fluorescence intensity (EZH2; compound 10 μM) | IC50 [1] [µM] | IC50 [2] [nM] | SMILES | activity compared with control compounds in the assay using a TR-FRET kit [2] | effect compared with control compounds in Western Blot verification on cells ([1]; versus EPZ6438 and GSK126)
1 | 116.28 | 228.14 | 0.063 | 58.6 | CCN(C(=O)C1CCCC1)c1cc(-c2ccc(CN3CCNCC3)cc2)cc(C(=O)NCc2c(C)cc(C)[nH]c2=O)c1C [Compound 25, N-((4,6-dimethyl-2-oxo-1,2-dihydropyridin-3-yl)methyl)-5-(N-ethylcyclopentanecarboxamido)-4-methyl-4′-((4-piperazin-1-yl)methyl)-4-methyl-[1,1′-diphenyl]-3-carboxamide] | superior activity than control compounds GSK126 and EPZ6438 | 
2 |  |  | 0.024 | 29 | CCN(C(=O)C1CC1)c1cc(-c2ccc(OCCCN3CCOCC3)c(F)c2)cc(C(=O)NCc2c(C)cc(C)[nH]c2=O)c1C [Compound 65, N-((4,6-dimethyl-2-oxo-1,2-dihydropyridin-3-yl)methyl)-5-(N-ethylcyclopropanecarboxamido)-3′-fluoro-4-methyl-4′-(3-morpholinopropoxy)-[1,1′-diphenyl]-3-carboxamide] | superior activity than control compounds GSK126 and EPZ6438 | superior effects than control compounds EPZ6438 and GSK126
3 |  |  | 0.041 |  | CCN(C(=O)C1CC1)c1cc(-c2cnc(N3CCN(CC4CC4)CC3)cc2C)cc(C(=O)NCc2c(C)cc(C)[nH]c2=O)c1C [Compound 71, 5-(6-(4-(cyclopropylmethyl)piperazin-1-yl)-4-methylpyridin-3-yl)-N-((4,6-dimethyl-2-oxo-1,2-dihydropyridin-3-yl)methyl)-3-(N-ethylcyclopropanecarboxamido)-2-methylbenzamide] | superior activity than control compounds GSK126 and EPZ6438 | 
4 |  |  | 0.093 | 23 | CCN(C(=O)C1CC1)c1cc(-c2ccc(OCCN3CCOCC3)c(F)c2)cc(C(=O)NCc2c(C)cc(C)[nH]c2=O)c1C [Compound 74, N-((4,6-dimethyl-2-oxo-1,2-dihydropyridin-3-yl)methyl)-5-(N-ethylcyclopropanecarboxamido)-3′-fluoro-4-methyl-4′-(2-morpholinoethoxyl)-[1,1′-diphenyl]-3-carboxamide] | superior activity than control compounds GSK126 and EPZ6438 | 
